According to paper PMC9404985, “Development of Dicationic Bisguanidine-Arylfuran Derivatives as Potent Agents against Gram-Negative Bacteria” (Antibiotics, 2022):

How the values were obtained:
[1] = system: Pseudomonas aeruginosa CCUG # 59347; experiment: MIC of established antibiotics, micro-broth dilution; conditions: CCUG59347, read-out: MIC Pseudomonas aeruginosa CCUG 59347
[2] = system: Acinetobacter baumannii CCUG # 57035; experiment: as above; conditions: CCUG57035, read-out: MIC Acinetobacter baumannii CCUG 57035
[3] = system: P. aeruginosa (CCUG #17619); experiment: Antibacterial activity against isolates (Omnilog, Biolog redox dye); assay type: cell-based, Pseudomonas aeruginosa; conditions: Pseudomonas aeruginosa, CCUG17619; ca-MH broth, 24 h, 37 °C
Procedure: (§1) The antibacterial activities of eight compounds (1, 3, 4, 6, 8, 10, 16, and 17) were tested against 10 different isolates of Gram-negative bacteria from human and other sources, two E. coli (CCUG #67180 and CCUG #17620/ATCC #25922, control strain), two K. pneumoniae (CCUG #58547 and CCUG #225T), two P. aeruginosa (CCUG #17619 and CCUG #59347), two A. baumannii (CCUG #57035 and CCUG #57250), E. cloacae (CCUG #6323T), and E. hormaechei (CCUG #58962) in a 96-well plate format. The compounds to test were 3-fold diluted in six steps in cation-adjusted Mueller-Hinton (ca-MH) broth to final concentrations spanning from 30 to 0.12 µM, i.e., a 1667–416,667 times dilution from the 50 mM stocks. Bacterial mass from the ten isolates grown overnight on horse blood or Mueller–Hinton agar plates was suspended in ca-MH and adjusted to a final inoculum cell density of ~5 × 10^5 CFU/mL. For all assays, Biolog redox dye A diluted 100× from the stock solution was used for measurements of all ten isolates (up to a total volume of 120 µL per well). All plates included one well per isolate with only inoculum and dye but no test compound (i.e., positive control) and one well per isolate with inoculum, dye and DMSO diluted 1667×, corresponding to the DMSO concentration in the wells with the highest concentration of test compound. All measurements were performed using the Omnilog microplate reader (Biolog, Hayward, CA, USA) where the 96-well plates were read at 15 min intervals for a total of 24 h at 37 °C.

[4] = system: K. pneumoniae (CCUG #58547); experiment: as above; assay type: cell-based, Klebsiella pneumoniae; conditions: Klebsiella pneumoniae, CCUG58547; ca-MH broth, 24 h, 37 °C
Procedure: as §1, with “The compounds to test were 3-fold diluted in six steps in cation-adjusted Mueller-Hinton (ca-MH) broth to final concentrations spanning from 30 to 0.12 µM, i.e., a 1667–416,667 times dilution from the 50 mM stocks.” left out

[5] = system: Escherichia coli CCUG # 67180; experiment: MIC of established antibiotics, micro-broth dilution; conditions: CCUG67180, read-out: MIC Escherichia coli CCUG 67180
[6] = system: Acinetobacter baumannii CCUG # 57250; experiment: as above; conditions: CCUG57250, read-out: MIC Acinetobacter baumannii CCUG 57250
[7] = system: Escherichia coli CCUG # 17620; experiment: as above; conditions: CCUG17620, read-out: MIC Escherichia coli CCUG 17620
[8] = system: Enterobacter hormaechei CCUG # 58962; experiment: as above; conditions: CCUG58962, read-out: MIC Enterobacter hormaechei CCUG 58962
[9] = system: Klebsiella pneumoniae CCUG # 225T; experiment: as above; conditions: read-out: MIC Klebsiella pneumoniae CCUG 225T
E. coli (CCUG #67180) = experiment: Antibacterial activity against isolates (Omnilog, Biolog redox dye); assay type: cell-based, Escherichia coli; conditions: Escherichia coli, ca-MH broth, 24 h, 37 °C
Procedure: as §1

[10] = system: E. coli (CCUG #17620/ ATCC #25922); experiment: as above; assay type: cell-based, Escherichia coli; conditions: Escherichia coli; ca-MH broth, 24 h, 37 °C
Procedure: as §1

[11] = system: Enterobacter cloacae CCUG # 6323T; experiment: MIC of established antibiotics, micro-broth dilution; conditions: read-out: MIC Enterobacter cloacae CCUG 6323T
[12] = system: Klebsiella pneumoniae CCUG # 58547; experiment: as above; conditions: CCUG58547, read-out: MIC Klebsiella pneumoniae CCUG 58547
[13] = system: Pseudomonas aeruginosa CCUG # 17619; experiment: as above; conditions: CCUG17619, read-out: MIC Pseudomonas aeruginosa CCUG 17619
[14] = system: A. baumannii (CCUG #57250); experiment: Antibacterial activity against isolates (Omnilog, Biolog redox dye); assay type: cell-based, Acinetobacter baumannii; conditions: Acinetobacter baumannii, ca-MH broth, 24 h, 37 °C
Procedure: as §1

[15] = system: E. hormaechei (CCUG #58962); experiment: as above; assay type: cell-based, Enterobacter hormaechei; conditions: Enterobacter hormaechei, CCUG58962; ca-MH broth, 24 h, 37 °C
Procedure: as §1, with “The compounds to test were 3-fold diluted in six steps in cation-adjusted Mueller-Hinton (ca-MH) broth to final concentrations spanning from 30 to 0.12 µM, i.e., a 1667–416,667 times dilution from the 50 mM stocks.” left out

[16] = system: A. baumannii (CCUG #57035); experiment: as above; assay type: cell-based, Acinetobacter baumannii; conditions: Acinetobacter baumannii, CCUG57035; ca-MH broth, 24 h, 37 °C
Procedure: as §1, with “The compounds to test were 3-fold diluted in six steps in cation-adjusted Mueller-Hinton (ca-MH) broth to final concentrations spanning from 30 to 0.12 µM, i.e., a 1667–416,667 times dilution from the 50 mM stocks.” left out

[17] = system: K. pneumoniae (CCUG #225T); experiment: as above; assay type: cell-based, Klebsiella pneumoniae; conditions: Klebsiella pneumoniae; ca-MH broth, 24 h, 37 °C
Procedure: as §1

E. cloacae (CCUG #6323T) = experiment: as above; assay type: cell-based, Enterobacter cloacae; conditions: Enterobacter cloacae; ca-MH broth, 24 h, 37 °C
Procedure: as §1

[18] = system: P. aeruginosa (CCUG #59347); experiment: as above; assay type: cell-based, Pseudomonas aeruginosa; conditions: Pseudomonas aeruginosa, CCUG59347; ca-MH broth, 24 h, 37 °C
Procedure: as §1, with “The compounds to test were 3-fold diluted in six steps in cation-adjusted Mueller-Hinton (ca-MH) broth to final concentrations spanning from 30 to 0.12 µM, i.e., a 1667–416,667 times dilution from the 50 mM stocks.” left out

Q: Which results are given for CO/N=C(\C(=O)N[C@@H]1C(=O)N2C(C(=O)O)=C(COC(C)=O)CS[C@H]12)c1csc(N)n1 [CTX, Cefotaxime, reference compound]?
A: MIC [1]: > 560 µM; MIC [2]: > 560 µM; EC50 [3]: 13 µM; EC90 [3]: 18.4 µM; EC50 [4]: 324 µM; EC90 [4]: 478 µM; MIC [5]: 280 µM; MIC [6]: 36 µM; MIC [7]: 0.25 to 0.5 µM; MIC [8]: 280 µM; MIC [9]: 0.25 µM; EC90 (E. coli (CCUG #67180); CCUG67180, 24 h): 183 µM; EC50 (E. coli (CCUG #67180); CCUG67180): 161 µM; EC50 [10]: 0.2 µM; EC90 [10]: 0.3 µM; MIC [11]: 9 to 36 µM; MIC [12]: 560 µM; MIC [13]: 36 µM; EC90 ([14]; CCUG57250, 24 h): 48 µM; EC50 ([14]; CCUG57250): 23.4 µM; EC50 [15]: 78.4 µM; EC90 [15]: 158 µM; EC50 [16]: 430 µM; EC90 [16]: 681 µM; EC50 [17]: 0.2 µM; EC90 [17]: 0.3 µM; EC50 (E. cloacae (CCUG #6323T)): 2.1 µM; EC90 (E. cloacae (CCUG #6323T)): 4.5 µM; EC50 [18]: 1510 µM; EC90 [18]: 1680 µM
